One assay addresses T1, SLICK (Homo sapiens, UniProt Q6UVM3).
T1 construct: expressed in transfected cells; host or cells: HEK293
The experiment in a line: Tl+-flux assay in HEK-293 cells, SLICK. The assay is classed as cell-based. Particulars: 10 µM test compound. The source says:
(§1) Having executed our plan to prepare analogs across the identified regions of the chemotype (Figure 2), we identified two analogs for further profiling and evaluation. […] Desiring to add a second compound with some measure of structural differences, we also chose another submicromolar SLACK inhibitor 66 (VU0936154). Whereas 40 contains an ether linker and a halogenated phenyl group in the eastern region, […] contains an N-methyl linker and a phenyl group with a more polar cyano substituent. We first screened these analogs at 10 µM versus our in-house panel of ion channel targets using Tl^+-flux assays in HEK-293 cells expressing the human target of interest. […] Included in this set are Slo family members SLICK and two isoforms of Maxi-K, as well as several different K^+, Na^+, and Ca^2+ channels (Table 6). […] Of note was the excellent selectivity versus the broader panel of targets for both compounds, including versus the hERG channel.
(§2) Stably transfected monoclonal HEK293 cell lines expressing SLICK, Maxi-K α1/β3, Maxi-K α1/β4, CaV3.2, GIRK 1/2, KV2.1, KV7.2, NaV1.7, and TASK-1 were generated as previously described. […]
(§3) The Tl^+ flux assays were conducted as previously described, with modifications optimized for individual cell lines as described below. […] Cell plates were then loaded onto a Panoptic kinetic imaging plate reader (WaveFront Biosciences, Franklin, TN, USA). […]

In a further assay the target is T2, GIRK 1/2 (Homo sapiens, UniProt P48051+P48549).
T2 construct: expressed in transfected cells; host or cells: HEK293
T2 sequence (P48549 whole entry): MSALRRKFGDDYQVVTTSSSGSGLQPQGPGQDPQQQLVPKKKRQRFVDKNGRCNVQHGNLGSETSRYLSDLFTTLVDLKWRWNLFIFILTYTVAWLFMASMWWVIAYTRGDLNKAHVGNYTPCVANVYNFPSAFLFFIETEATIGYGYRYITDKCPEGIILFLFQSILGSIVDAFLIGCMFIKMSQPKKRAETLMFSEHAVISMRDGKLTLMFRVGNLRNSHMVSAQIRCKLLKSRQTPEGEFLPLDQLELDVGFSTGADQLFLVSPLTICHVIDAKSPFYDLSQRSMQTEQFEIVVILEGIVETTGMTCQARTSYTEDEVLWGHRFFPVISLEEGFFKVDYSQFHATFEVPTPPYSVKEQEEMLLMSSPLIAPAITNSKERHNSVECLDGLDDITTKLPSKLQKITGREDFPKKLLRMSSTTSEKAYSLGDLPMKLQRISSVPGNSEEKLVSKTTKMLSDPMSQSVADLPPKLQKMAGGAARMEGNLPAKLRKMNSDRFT
T2 sequence (P48051 whole entry): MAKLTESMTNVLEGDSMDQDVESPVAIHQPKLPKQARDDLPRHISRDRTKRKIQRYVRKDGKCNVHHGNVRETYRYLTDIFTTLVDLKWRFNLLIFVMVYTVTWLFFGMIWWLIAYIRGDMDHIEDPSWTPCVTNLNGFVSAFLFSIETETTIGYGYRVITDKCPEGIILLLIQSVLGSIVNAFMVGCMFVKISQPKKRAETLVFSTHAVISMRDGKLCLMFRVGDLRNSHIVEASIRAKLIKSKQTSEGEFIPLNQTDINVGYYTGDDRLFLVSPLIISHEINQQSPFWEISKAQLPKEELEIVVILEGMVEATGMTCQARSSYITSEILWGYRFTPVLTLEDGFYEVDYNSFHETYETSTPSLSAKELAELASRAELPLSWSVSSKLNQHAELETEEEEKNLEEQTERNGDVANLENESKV
Kind of assay: Tl+-flux assay in HEK-293 cells, GIRK 1/2. The assay is classed as cell-based. Particulars: HEK293; 10 µM test compound; relative to control SCH23390; read-out: Percent Inhibition ± SEM, GIRK 1/2.
Description: as §1, §2, §3

SMILES strings stand for the structures. “And” between values parts separate entries of the source, which are not always exact repeats. Equal values may be shown once.

T1 sequence (Q6UVM3 whole entry): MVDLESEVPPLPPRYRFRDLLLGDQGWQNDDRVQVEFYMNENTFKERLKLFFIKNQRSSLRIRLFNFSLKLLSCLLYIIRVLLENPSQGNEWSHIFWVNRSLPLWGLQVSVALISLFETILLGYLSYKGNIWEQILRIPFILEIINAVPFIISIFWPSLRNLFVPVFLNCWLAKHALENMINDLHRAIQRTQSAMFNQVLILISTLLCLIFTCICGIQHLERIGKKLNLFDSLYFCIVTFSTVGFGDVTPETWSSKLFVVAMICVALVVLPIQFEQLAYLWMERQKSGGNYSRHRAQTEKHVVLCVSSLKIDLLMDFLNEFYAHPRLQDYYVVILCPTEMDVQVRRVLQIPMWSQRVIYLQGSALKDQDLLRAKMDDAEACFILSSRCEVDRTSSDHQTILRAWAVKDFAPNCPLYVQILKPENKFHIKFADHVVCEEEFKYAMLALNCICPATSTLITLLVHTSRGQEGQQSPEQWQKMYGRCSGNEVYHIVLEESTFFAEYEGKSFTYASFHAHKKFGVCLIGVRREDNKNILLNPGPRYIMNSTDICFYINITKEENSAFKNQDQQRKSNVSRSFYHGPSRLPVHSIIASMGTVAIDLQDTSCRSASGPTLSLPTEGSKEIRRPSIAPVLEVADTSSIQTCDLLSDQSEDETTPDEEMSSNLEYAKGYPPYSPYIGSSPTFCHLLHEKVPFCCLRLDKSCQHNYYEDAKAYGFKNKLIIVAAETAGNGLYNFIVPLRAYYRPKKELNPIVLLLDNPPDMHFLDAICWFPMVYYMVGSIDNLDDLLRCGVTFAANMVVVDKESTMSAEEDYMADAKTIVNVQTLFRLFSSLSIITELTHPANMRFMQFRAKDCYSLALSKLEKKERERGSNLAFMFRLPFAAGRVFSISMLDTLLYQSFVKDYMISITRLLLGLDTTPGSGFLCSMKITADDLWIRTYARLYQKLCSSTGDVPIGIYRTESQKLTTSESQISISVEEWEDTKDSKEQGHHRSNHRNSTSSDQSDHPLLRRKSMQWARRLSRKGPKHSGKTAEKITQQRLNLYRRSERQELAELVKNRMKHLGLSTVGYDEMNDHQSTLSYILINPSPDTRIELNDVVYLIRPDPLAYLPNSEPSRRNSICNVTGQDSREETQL

On to `CC(C)(Oc1ccc(Cl)cc1)C(=O)Nc1cnc(Oc2c(F)cccc2F)nc1` [Analog 40], for which the “Percent activation ± SEM, SLICK” value at SLICK (activator, relative to control acetazolamide) is 36% and 36 ± 8.8 (activator) ^3%. For the same compound, the inhibition at 10 µM at GIRK 1/2 turned out to be 6.8 ± 3.3%.
Regarding `CN(c1ccc(C#N)cc1)c1ncc(NC(=O)C(C)(C)Oc2ccc(Cl)cc2)cn1` [Analog 66], the inhibition at 10 µM turned out to be 16 ± 1.4% at SLICK (HEK293, relative to control SKF96365, read-out: Percent Inhibition ± SEM, SLICK) and 6.4 ± 1.5% on GIRK 1/2.

(Values after PMC11643494, “Structure–Activity Relationship Studies in a Series of 2-Aryloxy-N-(pyrimidin-5-yl)acetamide Inhibitors of SLACK Potassium Channels” (Molecules, 2024).)
